Data on 3 molecules can be found in patent US20020018748A1, “Method for targeted radiotherapy, pain palliation and imaging of osteoblastic skeletal tumors and composition therefore” (priority 2000, published 2002).

“And” between values parts separate entries of the source, which are not always exact repeats. Equal values may be shown once.

Data set [1] has as its system bone metastases from prostate cancer. Nature of the data set: Fractional uptake of a tracer dose of ^85Sr chloride by bone metastases, measured with gamma camera / external counting. The class given is in vivo, patient. The method, then: To calculate the activity (mCi or MBq) of the dose of a carrier-free salt of ^89Sr, preferably chloride, to be administered to palliate painful metastases in a patient, 1 mCi (37 MBq) of ^85Sr chloride with standard specific activity [120 μCi (4.44 MBq)/mg of strontium) is injected into the patient and radioactivity in each metastasis is measured 24 hours after injection. The fractional uptake in each metastasis (relative osteoblastic activity) is calculated by expressing the radioactivity measured in each metastasis as a percent of the administered dose. The sum of the fractional uptake in all metastases is taken as the “metastatic burden” of the patient.
Measurements of radioactivity can be guided by a recent bone scan with ^99Tc^m-MDP (methylene diphosphonate). These measurements can be made by external point counting with a collimated scintillation detector, or by using a gamma camera. […]
The gamma camera needs to be equipped with a high-energy collimator. Anterior and posterior images of the lesions are recorded for 15 minutes. […]
The count rate in each metastasis is calculated by the square root of the product of the count rates in the anterior (A) and posterior (P) images divided by e^−μd: [(cps A) ×(cps P)/(e^−μd)]. The exponential term accounts for the attenuation of the gamma photons by the patient's tissues, where μ is the attenuation coefficient for the gamma rays of ^85Sr, previously measured in a water phantom, and d is the patent thickness measured in cm from x-ray images. The attenuation coefficient needs to be experimentally estimated only once; sensitivity should be measured using an ^85Sr source in a soft-tissue phantom before each imaging session because it varies with time. […]
The sum of the fractional uptake of ^85Sr chloride by all detectable metastases (“metastatic burden”), is used to define the activity (mCi or MBq) of ^89Sr chloride needed to palliate painful metastases in a patient. […] The fractional uptake measured in these metastases was 3%, 4%, 7%, 10%, and 17% of the dose respectively, with a total “metastatic burden” of 41% (3+4+7+10+17=41) (Table II). […]

The next data set deals with bone metastases. In words: Theoretical (calculated) distribution of ^89Sr chloride doses in the metastases, from the ^85Sr chloride uptake. The class given is in vivo, patient. The following applies: for total amount of strontium incorporated by all metastases: 4 mCi dose. The protocol:
The fractional uptake (%) of a standard dose ^89Sr chloride for pain palliation in bone metastasis [4 mCi (148 MBq)] with specific activity of 120 μCi (4.44 MBq)/mg of strontium) (B) is calculated from the fractional uptake (%) of 1 mCi of ^85Sr chloride at the same specific activity (A) is illustrated in Table II.
The fractional uptake (%) of a standard dose of 4.0 mCi (148 MBq) of ^89Sr chloride at the standard specific activity is calculated for each metastasis from the results obtained with ^85Sr chloride. Since the specific activity is the same for both radionuclides, the fractional uptake would be similar if the same physiological conditions are maintained. However, the activity (μCi) and the amount of strontium (mg) incorporated by the metastases would be increased by four times because the activity of the administered dose is increased from 1 mCi to 4 mCi. Theoretically, the fractional uptake of a standard dose of ^89Sr chloride by the metastatic burden would be 41.0% of the dose (1.64 mCi or 60.7 MBq), leaving in blood a remaining fraction of 59% of the dose (2.36 mCi or 87.3 MBq) available for renal excretion and for incorporation by normal bone.
The absolute amount of strontium (mg) incorporated by each lesion can be calculated by multiplying the activity of the administered dose (mCi or MBq) by the fractional uptake by a given metastasis (% of the dose), and dividing the result by the specific activity of the dose (mCi or MBq/mg of strontium):
Strontium (mg)=Activity of the dose (mCi) × fractional uptake (%)/specific activity (mCi/mg Sr)
In Table II it is also appreciated that the fractional uptake is the same for both the activity (μCi) and the absolute amount (mg) of strontium incorporated by the metastases. One mg of strontium corresponds to 3% of the element in the dose. One hundred and twenty μCi of ^89Sr correspond to […] of the activity in the dose. One mCi of strontium chloride with specific activity of 120 μCi/mg of strontium contains 8.333 mg of strontium (Table I), therefore, 4 mCi would contain 33.333 mg of the element. A fractional uptake of 41.0% corresponds to 410 μCi and 3.416 mg when using 1 mCi, and to 1.64 mCi and 13.667 mg when the dose is increased to 4 mCi (Table II). The amount of strontium (mg) taken up by the metastasis per unit time should be constant if the physiological parameters are maintained. Dose calculation may be guided by the relationship of the amount of strontium in carrier-free ^89Sr chloride ([…]) and that which is in an equal amount of its low specific activity counterpart (120 μCi/mg of Sr). The amount of strontium in 4 mCi of low specific activity ^89Sr chloride (120 μCi/mg of Sr), is 33.333 mg, while in carrier-free ^89Sr chloride (17 Ci/mg of Sr) it is reduced to 235.2 ng. The relationship between these quantities would be:
Theoretical distribution of ^89Sr chloride at different specific activities assuming the same fractional uptake (% of the dose) by the metastases. (A) ^89Sr chloride with low specific activity [120 μCi (4.44 MBq)/mg of strontium]; (B) carrier-free ^89Sr chloride [17 Ci (629 GBq)/mg of strontium] is illustrated in Table III.
If the “metastatic burden” takes up 41% of a 4mCi dose of the low specific activity ^89Sr chloride (13.664 mg of strontium) (Tables II and III), it is evident that the very small amount of strontium in the carrier-free ^89Sr chloride dose (235.2 ng) would be totally incorporated by the metastases, resulting in a fractional uptake of 100% y the metastatic burden. To correct for this effect, the data in Table IlI should be multiplied by the ratio between 100% uptake and the fractional uptake by the metastatic burden by using 89Sr chloride at the lower specific activity. In this case, the ratio is 100%/41%=2.439. […]

Another data set concerns painful bone metastases. The following applies: cited from earlier work.
For data set [2] the following is noted: intravenous single injection; reduced by slow administration over at least two minutes; cited from earlier work.
A further data set concerns bone marrow. To be noted: repeat doses at 3-month intervals; cited from earlier work.
The next data set relates to metastases. The following applies: in vivo; cited from earlier work.
Data set [3] has as its system metastatic lesions in bone. Nature of the data set: Absorbed radiation dose estimates by direct measurements of radioactivity in bone metastases. The class given is in vivo. The following applies: after 4 mCi (148 MBq), 120 μCi/mg of strontium. From the text: Absorbed radiation dose estimates for metastatic lesions in bone, obtained by direct measurements of radioactivity in bone metastases after the administration of 4 mCi (148 MBq) of ^89Sr chloride at standard specific activity (120 μCi [4.44 MBq]/mg of strontium), varied from 1.3 to 64 Gy, with a mean of 18±16 Gy. The average total absorbed dose in normal bone sites was 1.1±0.4 Gy. The metastases (target) to normal bone (non-target) dose ratio in individual samples varied from 8±4 to 40±25. If compared to absorbed radiation dose provided by external beam radiotherapy, the absorbed radiation dose delivered by ^89Sr chloride should be large enough to produce a therapeutic effect on the metastases. But absorbed radiation doses delivered by ^89Sr chloride may not be compared with those delivered by external beam radiotherapy because the different dose rates used in each methodology. External beam radiotherapy delivers very high dose rates in a very short time, while ^89Sr chloride provides very low dose rates during a long period. These differences reduce the biological effect of a given dose of ^89Sr because there is repair of sublethal damage.

Setting [4] is: carrier-free, 1.64 mCi dose, theoretical.
Where [5] appears, read: standard dose 4 mCi (148 MBq), 120 μCi/mg of strontium, theoretical.
Where [6] appears, read: standard dose 4 mCi, 120 μCi/mg of strontium, theoretical.

On to `[85Sr+2].[Cl-].[Cl-]` [^85Sr Chloride (120 μCi/mg Sr), ^85Sr chloride], for which, in data set [1] (1 mCi dose, 120 μCi/mg Sr, 24 hours after injection, r8-r12 = metastasis 1-5, r13 = Total, one patient), the “Uptake (%)” value was 7.0% and 10.0% and 17.0% and 41.0% and 3.0% and 4.0%. Also, in data set [1] (1 mCi, 120 μCi/mg of strontium, five metastases of one patient with prostate cancer, values respectively), the “fractional uptake measured in these metastases” value was 3 % of the dose and 4 % of the dose and 7 % of the dose and 10 % of the dose and 17 % of the dose. Besides, in data set [1] (1 mCi, 120 μCi/mg of strontium, one patient, five metastases), the “total "metastatic burden" (sum of fractional uptake in all metastases)” value was 41%.
Take `[89Sr+2].[Cl-].[Cl-]` [^89Sr Chloride (17 Ci/mg Sr), ^89Sr chloride]: the “fractional uptake by the metastases relative to the same activity at standard specific activity” value in the data set with bone metastases (4 mCi (148 MBq) carrier-free vs 120 μCi/mg, ratio 100%/41%) was 2.439 times. The “activity incorporated by individual metastases” value with bone metastases (carrier-free, 1.64 mCi (60.68 MBq) dose, metastasis No. 4, No. 5, No. 1, No. 2, No. 3, respectively, listed as carrier-free ^89Sr chloride) is 400 μCi and 680 μCi and 120 μCi and 160 μCi and 280 μCi. In addition, the “ratio metastases to normal bone, theoretical values” with bone metastases (carrier-free, 1.64 mCi dose, measured ratio multiplied by 2.439) was 20-98. In addition, in the data set with bone metastases (setting [4]), the “absolute amount of strontium taken up by the metastases” value is on record as 96.422 ng and the “fractional uptake by the metastatic burden” value is listed as 100%. For the same molecule, the “fractional uptake by the metastatic burden” value with bone metastases (carrier-free, 4 mCi dose (235.2 ng strontium), theoretical) is 100%. In addition, the “activity received by individual metastases” value in the data set with bone metastases (carrier-free, 4.1 mCi dose, metastasis 1-5 respectively, listed as carrier-free ^89Sr chloride) is 300 μCi and 400 μCi and 700 μCi and 1,000 μCi and 1,700 μCi. In addition, in the data set with bone metastases (carrier-free, 5.466 mCi (202.2 MBq) dose, calculated), the “mean absorbed radiation dose to the metastases” value is 60 Gy.
As for `[89Sr+2].[Cl-].[Cl-]` [^89Sr Chloride (120 μCi/mg Sr), ^89Sr chloride], the “duration of response, mean” value with painful bone metastases (after ^89Sr administration) is given as 6 months. In the data set with painful bone metastases (survey in the United States in 1995, patients treated with bone-seeking radionuclides), the “overall effective pain palliation” value was 81%. Further, in the data set with painful bone metastases (survey in the United States in 1995), the “patients achieving a complete remission of pain” value was 15%. In data set [2], the “effect during the injection” value is recorded as “facial flushing during the injection”. Further, the “toxicity of additional injections” value in the data set with bone marrow is “no major toxicity”. Further, in the data set on metastases, the “ratio of the uptake by metastases as compared to the uptake in normal bones” value is “higher than 10 to 1”. Also, in data set [3], the “absorbed radiation dose for metastatic lesions in bone, mean” value is given as 18±16 Gy; the “average total absorbed dose in normal bone sites” value was 1.1±0.4 Gy; the “metastases (target) to normal bone (non-target) dose ratio in individual samples” value was 8-40. Further, the “total amount of strontium incorporated by all metastases” value (“total amount of strontium incorporated” below) with bone metastases (120 μCi/mg of strontium, theoretical) is reported as 13.664 mg. The “total amount of strontium incorporated” value in the data set with bone metastases (120 μCi/mg of strontium, theoretical, listed as low specific activity ^89Sr chloride) is 13.664 mg. In addition, in the data set with bone metastases (120 μCi/mg of strontium, theoretical, listed as low specific activity ^89Sr chloride (120 μCi/mg of Sr)), the “total amount of strontium incorporated” value was 13.667 mg. The mean fractional uptake with bone metastases (over the five metastases of Table II) is listed as 8.2%. Moreover, in the data set with bone metastases (setting [5]), the “activity taken up by the metastatic burden” value is reported as 1.64 mCi and the “fractional uptake by the metastatic burden” value is 41 % of the dose. Further, the “fractional uptake by the metastatic burden” value in the data set on bone metastases (standard dose 4 mCi (148 MBq), 120 μCi/mg of strontium, theoretical, listed as low specific activity ^89Sr chloride) was 41 % of the dose. In the data set with bone metastases (setting [6]), the “activity remaining in blood, available for renal excretion and incorporation by normal bone” value is recorded as 2.36 mCi; the “fraction remaining in blood, available for renal excretion and incorporation by normal bone” value is listed as 59 % of the dose.
